Measured values from US20040110771A1, “7-(r)-aminotriazolopyrimidines, the production thereof and use of the same for combatting phytopathogenic fungi” (priority 2000, published 2004).

How the values were obtained:
Type in all cases: in vivo
[1] = system: Blumeria graminis forma specialis tritici; experiment: Activity against mildew of wheat caused by Blumeria graminis forma specialis tritici; conditions: wheat seedlings "Kanzler", dusted with spores 24 h after spraying, 7 days
Procedure: (§1) The active compounds were prepared separately or jointly as a 10% strength emulsion in a mixture of 70% by weight of cyclohexanone, 20% by weight of Nekanil® LN (Lutensol® AP6, wetting agent having emulsifying and dispersing action based on ethoxylated alkylphenols) and 10% by weight of Wettol® EM (nonionic emulsifier based on ethoxylated castor oil) and diluted with water to the desired concentration.
Leaves of potted wheat seedlings of the cultivar “Kanzler” were sprayed to runoff point with an aqueous preparation of active compound which had been prepared from a stock solution made of 10% of active compound, 85% of cyclohexanone and 5% of emulsifier and were dusted 24 hours after the spray coating had dried on with spores of mildew of wheat (Blumeria graminis forma specialis tritici). The test plants were then placed in a greenhouse at 20-24° C. and 60-90% relative atmospheric humidity. After 7 days, the extent of the mildew development was determined visually in % infection of the entire leaf area.

Pyrenophora teres = experiment: Activity against net blotch of barley caused by Pyrenophora teres; conditions: barley seedlings "Igri", inoculated 24 h after spraying, 6 days
Procedure: as §1
Leaves of potted barley seedlings of the cultivar “Igri” were sprayed to runoff point with an aqueous preparation of active compound which had been prepared from a stock solution made of 10% of active compound, 85% of cyclohexanone and 5% of emulsifier and were inoculated 24 hours after the spray coating had dried on with an aqueous spore suspension of Pyrenophora teres, the net blotch pathogen. The test plants were then placed in a greenhouse at 20-24° C. and 95-100% relative atmospheric humidity. After 6 days, the extent of the development of the disease was determined visually in % infection of the entire leaf area.

Puccinia recondita = experiment: Curative activity against brown rust of wheat caused by Puccinia recondita; conditions: curative spray 24 h after inoculation, wheat seedlings "Kanzler", 7 days
Procedure: as §1
Leaves of potted wheat seedlings of the cultivar “Kanzler” were dusted with spores of brown rust (Puccinia recondita). The pots were then placed in a chamber with high atmospheric humidity (90 to 95%) at 20-22° C. for 24 hours. During this period, the spores germinated and the germinal tubes penetrated into the leaf tissue. The following day, the infected plants were sprayed to runoff point with an aqueous preparation of active compound which had been prepared from a stock solution made of 10% of active compound, 85% of cyclohexanone and 5% of emulsifier. After the spray coating had dried on, the test plants were cultivated in a greenhouse at 20-22° C. and 65-70% relative atmospheric humidity for 7 days. The extent of the rust fungus development on the leaves was then determined.

Q: Which results are given for `Cc1cccc(F)c1-c1c(Cl)nc2ncnn2c1NC(C)C(C)(C)C` (single isomer, unassigned) [I.-12a]?
A: % infection of the leaves after application of an aqueous preparation comprising . . . ppm of active compound ([1]; 16 ppm): 7%; % infection of the leaves after application of an aqueous preparation comprising . . . ppm of active compound ([1]; 63 ppm): 7%; % infection of the leaves after application of an aqueous preparation comprising . . . ppm of active compound ([1]; 250 ppm): 7%; % infection of the leaves after application of an aqueous preparation comprising . . . ppm of active compound (Pyrenophora teres; 16 ppm): 0%; % infection of the leaves after application of an aqueous preparation comprising . . . ppm of active compound (Pyrenophora teres; 63 ppm): 0%; % infection of the leaves after application of an aqueous preparation comprising . . . ppm of active compound (Pyrenophora teres; 250 ppm): 0%

Q: Which results are given for `Cc1cccc(F)c1-c1c(Cl)nc2ncnn2c1N[C@H](C)C(C)(C)C` (single isomer, unassigned) [I.-12b]?
A: % infection of the leaves after application of an aqueous preparation comprising . . . ppm of active compound ([1]; 16 ppm): 60%; % infection of the leaves after application of an aqueous preparation comprising . . . ppm of active compound ([1]; 63 ppm): 60%; % infection of the leaves after application of an aqueous preparation comprising . . . ppm of active compound ([1]; 250 ppm): 60%; % infection of the leaves after application of an aqueous preparation comprising . . . ppm of active compound (Pyrenophora teres; 16 ppm): 7%; % infection of the leaves after application of an aqueous preparation comprising . . . ppm of active compound (Pyrenophora teres; 63 ppm): 7%; % infection of the leaves after application of an aqueous preparation comprising . . . ppm of active compound (Pyrenophora teres; 250 ppm): 0%

Q: With `C[C@@H](Nc1c(-c2c(F)cccc2Cl)c(Cl)nc2ncnn12)C(C)(C)C` [I.-3] as the compound, how does the “% infection of the leaves after application of an aqueous preparation comprising . . . ppm of active compound” value (from here on “% infection of the leaves”) (Puccinia recondita; 250 ppm) read?
A: 20%

Q: `CC(Nc1c(-c2c(F)cccc2F)c(Cl)nc2ncnn12)C(C)(C)C` (stereo not shown) [I.-6] was tested. Which “% infection of the leaves” value ([1]; 63 ppm) did it give?
A: 50%

Q: And the “% infection of the leaves” value ([1]; 250 ppm)?
A: 40%

Q: And the “% infection of the leaves” value (Pyrenophora teres; 16 ppm)?
A: 0%

Q: And the “% infection of the leaves” value (Pyrenophora teres; 63 ppm)?
A: 0%

Q: Which “% infection of the leaves” value (Pyrenophora teres; 16 ppm) does the source give for `CC(Nc1c(-c2c(Cl)cccc2Cl)c(Cl)nc2ncnn12)C(C)(C)C` (stereo not shown) [I.-9] here?
A: 0%

Q: And the “% infection of the leaves” value (Pyrenophora teres; 63 ppm)?
A: 0%

Q: And the “% infection of the leaves” value (Pyrenophora teres; 250 ppm)?
A: 0%

Q: Which “% infection of the leaves” value ([1]; 16 ppm) does the source give for `C[C@@H](Nc1c(-c2c(F)cc(F)cc2F)c(Cl)nc2ncnn12)C(C)(C)C` [I.-15, (R)-5-chloro-7-(3,3-dimethylbut-2-yl)amino-6-(2,4,6-trifluoro-phenyl)-1,2,4-triazolo[1,5-a]pyrimidine] here?
A: 7%

Q: And the “% infection of the leaves” value ([1]; 63 ppm)?
A: 7%

Q: And the “% infection of the leaves” value ([1]; 250 ppm)?
A: 3%

Q: What about the “% infection of the leaves” value (Puccinia recondita; 16 ppm) of the same compound?
A: 0%

Q: And the “% infection of the leaves” value (Puccinia recondita; 63 ppm)?
A: 0%

Q: What about the “% infection of the leaves” value (Puccinia recondita; 250 ppm) of the same compound?
A: 0%

Q: Which results are given for `Cc1cc(F)ccc1-c1c(Cl)nc2ncnn2c1NC(C)C(C)(C)C` (stereo not shown) [I.-24]?
A: % infection of the leaves after application of an aqueous preparation comprising . . . ppm of active compound ([1]; 16 ppm): 10%; % infection of the leaves after application of an aqueous preparation comprising . . . ppm of active compound ([1]; 63 ppm): 5%; % infection of the leaves after application of an aqueous preparation comprising . . . ppm of active compound ([1]; 250 ppm): 3%

Q: Which results are given for `CCCCCC(C)Nc1c(-c2c(F)cc(F)cc2F)c(Cl)nc2ncnn12` (stereo not shown) [I.-28]?
A: % infection of the leaves after application of an aqueous preparation comprising . . . ppm of active compound (Pyrenophora teres; 16 ppm): 90%; % infection of the leaves after application of an aqueous preparation comprising . . . ppm of active compound (Pyrenophora teres; 63 ppm): 40%; % infection of the leaves after application of an aqueous preparation comprising . . . ppm of active compound (Pyrenophora teres; 250 ppm): 20%

Q: Which “% infection of the leaves” value ([1]; 16 ppm) does the source give for `C[C@@H](Nc1c(-c2c(F)cc(F)cc2F)c(Cl)nc2ncnn12)C1CCCCC1` [I.-31] here?
A: 15%

Q: And the “% infection of the leaves” value ([1]; 63 ppm)?
A: 7%

Q: What about the “% infection of the leaves” value ([1]; 250 ppm) of the same compound?
A: 5%

Q: What about the “% infection of the leaves” value (Pyrenophora teres; 16 ppm) of the same compound?
A: 40%

Q: And the “% infection of the leaves” value (Pyrenophora teres; 63 ppm)?
A: 3%

Q: What about the “% infection of the leaves” value (Pyrenophora teres; 250 ppm) of the same compound?
A: 0%

Q: For `CC[C@@H](C)Nc1c(-c2ccccc2Cl)c(Cl)nc2ncnn12` [I.-42], which “% infection of the leaves” value (Puccinia recondita; 16 ppm) is on record?
A: 30%

Q: And the “% infection of the leaves” value (Puccinia recondita; 63 ppm)?
A: 20%

Q: What about the “% infection of the leaves” value (Puccinia recondita; 250 ppm) of the same compound?
A: 5%

Q: Which “% infection of the leaves” value (Puccinia recondita; 250 ppm) does the source give for `CC(Nc1c(-c2c(F)cccc2Cl)c(Cl)nc2ncnn12)C(C)(C)C` [comparison (S)-amine of I.-3] here?
A: 100%

Q: With `C[C@H](Nc1c(-c2c(F)cccc2F)c(Cl)nc2ncnn12)C(C)(C)C` [comparison (S)-amine of I.-6] as the compound, how does the “% infection of the leaves” value ([1]; 63 ppm) read?
A: 90%

Q: And the “% infection of the leaves” value ([1]; 250 ppm)?
A: 90%

Q: And the “% infection of the leaves” value (Pyrenophora teres; 16 ppm)?
A: 60%

Q: And the “% infection of the leaves” value (Pyrenophora teres; 63 ppm)?
A: 5%

Q: For `C[C@H](Nc1c(-c2c(Cl)cccc2Cl)c(Cl)nc2ncnn12)C(C)(C)C` [comparison (S)-amine of I.-9], which “% infection of the leaves” value (Pyrenophora teres; 16 ppm) is on record?
A: 100%

Q: And the “% infection of the leaves” value (Pyrenophora teres; 63 ppm)?
A: 100%

Q: What about the “% infection of the leaves” value (Pyrenophora teres; 250 ppm) of the same compound?
A: 100%

Q: Which “% infection of the leaves” value ([1]; 16 ppm) does the source give for `Cc1cccc(F)c1-c1c(Cl)nc2ncnn2c1NC(C)C(C)(C)C` [comparison (S)-amine of I.-12a] here?
A: 100%

Q: And the “% infection of the leaves” value ([1]; 63 ppm)?
A: 100%

Q: And the “% infection of the leaves” value ([1]; 250 ppm)?
A: 100%

Q: What about the “% infection of the leaves” value (Pyrenophora teres; 16 ppm) of the same compound?
A: 100%

Q: What about the “% infection of the leaves” value (Pyrenophora teres; 63 ppm) of the same compound?
A: 100%

Q: What about the “% infection of the leaves” value (Pyrenophora teres; 250 ppm) of the same compound?
A: 100%

Q: For `Cc1cccc(F)c1-c1c(Cl)nc2ncnn2c1NC(C)C(C)(C)C` [comparison (S)-amine of I.-12b], which “% infection of the leaves” value ([1]; 16 ppm) is on record?
A: 100%

Q: And the “% infection of the leaves” value ([1]; 63 ppm)?
A: 100%

Q: And the “% infection of the leaves” value ([1]; 250 ppm)?
A: 100%

Q: What about the “% infection of the leaves” value (Pyrenophora teres; 16 ppm) of the same compound?
A: 100%

Q: And the “% infection of the leaves” value (Pyrenophora teres; 63 ppm)?
A: 100%

Q: What about the “% infection of the leaves” value (Pyrenophora teres; 250 ppm) of the same compound?
A: 100%

Q: With `C[C@H](Nc1c(-c2c(F)cc(F)cc2F)c(Cl)nc2ncnn12)C(C)(C)C` [comparison (S)-amine of I.-15] as the compound, how does the “% infection of the leaves” value ([1]; 16 ppm) read?
A: 90%

Q: What about the “% infection of the leaves” value ([1]; 63 ppm) of the same compound?
A: 80%

Q: And the “% infection of the leaves” value ([1]; 250 ppm)?
A: 40%

Q: What about the “% infection of the leaves” value (Puccinia recondita; 16 ppm) of the same compound?
A: 100%

Q: What about the “% infection of the leaves” value (Puccinia recondita; 63 ppm) of the same compound?
A: 100%

Q: And the “% infection of the leaves” value (Puccinia recondita; 250 ppm)?
A: 100%

Q: Which results are given for `Cc1cc(F)ccc1-c1c(Cl)nc2ncnn2c1NC(C)C(C)(C)C` [comparison (S)-amine of I.-24]?
A: % infection of the leaves after application of an aqueous preparation comprising . . . ppm of active compound ([1]; 16 ppm): 60%; % infection of the leaves after application of an aqueous preparation comprising . . . ppm of active compound ([1]; 63 ppm): 60%; % infection of the leaves after application of an aqueous preparation comprising . . . ppm of active compound ([1]; 250 ppm): 15%

Q: What does the source list for `CCCCC[C@H](C)Nc1c(-c2c(F)cc(F)cc2F)c(Cl)nc2ncnn12` [comparison (S)-amine of I.-28]?
A: % infection of the leaves after application of an aqueous preparation comprising . . . ppm of active compound (Pyrenophora teres; 16 ppm): 100%; % infection of the leaves after application of an aqueous preparation comprising . . . ppm of active compound (Pyrenophora teres; 63 ppm): 100%; % infection of the leaves after application of an aqueous preparation comprising . . . ppm of active compound (Pyrenophora teres; 250 ppm): 100%

Q: What does the source list for `C[C@H](Nc1c(-c2c(F)cc(F)cc2F)c(Cl)nc2ncnn12)C1CCCCC1` [comparison (S)-amine of I.-31]?
A: % infection of the leaves after application of an aqueous preparation comprising . . . ppm of active compound ([1]; 16 ppm): 50%; % infection of the leaves after application of an aqueous preparation comprising . . . ppm of active compound ([1]; 63 ppm): 50%; % infection of the leaves after application of an aqueous preparation comprising . . . ppm of active compound ([1]; 250 ppm): 15%; % infection of the leaves after application of an aqueous preparation comprising . . . ppm of active compound (Pyrenophora teres; 16 ppm): 100%; % infection of the leaves after application of an aqueous preparation comprising . . . ppm of active compound (Pyrenophora teres; 63 ppm): 80%; % infection of the leaves after application of an aqueous preparation comprising . . . ppm of active compound (Pyrenophora teres; 250 ppm): 80%

Q: With `CCC(C)Nc1c(-c2ccccc2Cl)c(Cl)nc2ncnn12` [comparison (S)-amine of I.-42] as the compound, how does the “% infection of the leaves” value (Puccinia recondita; 16 ppm) read?
A: 100%

Q: What about the “% infection of the leaves” value (Puccinia recondita; 63 ppm) of the same compound?
A: 60%

Q: And the “% infection of the leaves” value (Puccinia recondita; 250 ppm)?
A: 15%
